Here are results for 14 compounds from patent publication US20240293364A1, “BIOMARKERS FOR CANCER THERAPY USING MDM2 ANTAGONISTS” (OTSUKA PHARMACEUTICAL CO., LTD., priority 2021, published 2024).

By IC50 is commonly meant the concentration needed to halve the response being measured.

Test [1] concerns SN40R2. The test can be described thus: SN40R2 growth inhibition, Protocol A (sulphorhodamine B). The conditions noted are these: for inhibition at 30 µM: read-out: SN40R2 (Protocol A) % at concentration, Protocol A; for IC50: read-out: SN40R2 IC50 (μM) (Protocol A).
Method: (§1) The MDM2 amplified cell lines tested were an isogenic matched pair of p53 wild-type and mutated osteosarcoma (SJSA-1 and SN40R2, respectively). […] Following incubation with the SRB dye at room temperature for 30 min, the plates were washed with 1% acetic acid and left to dry. […] The G150 was calculated by non-linear regression analysis of the data using Prism v4.0 statistical software.
For test [2], the system named is cancer cell lines. The conditions noted are these: cited from earlier work.
Test [3] relates to SJSA-1. The test is described as follows: SJSA-1 growth inhibition, Protocol A (sulphorhodamine B).
Method: as §1
Test [4] concerns tumour growth. Particulars: inducing mitochondrial effects of p53; cited from earlier work.
Test [5] deals with SN40R2. The test can be described thus: SN40R2 cell viability, Protocol B (CellTiter-Glo). Particulars: read-out: SN40R2 IC50 (μM) (Protocol B), Protocol B. On the technique in general: ATP-based viability assays read luminescence as a measure of living cells.
Method: (§2) The CellTiter-Glo® Luminescent Cell Viability Assay is a homogeneous method to determine the number of viable cells in culture based on quantitation of the ATP present, which signals the presence of metabolically active cells. […] 100 μl of CTG reagent (Promega #G7573) was added to all wells and luminescence was measured on the topcount.
(§3) The EC50 values were determined from a sigmoidal 4 parameter curve lit using XLfit in conjunction with Activity Base (IMBS; Guildford, Surrey, UK).
Test [6] concerns multiple myeloma (MM) cells. Particulars: in vitro and ex vivo; cited from earlier work.
In test [7] the test system is human leukaemia models. The conditions noted are these: by inducing MDM2 degradation; cited from earlier work.
In test [8] the test system is SJSA-1. The test can be described thus: SJSA-1 cell viability, Protocol B (CellTiter-Glo).
Method: as §2, §3

Take `CO[C@]1(c2ccc(Cl)cc2)c2ccc(C(C)(O)CN3CC(=O)NC3=O)cc2C(=O)N1Cc1ccc(Cl)cn1` (some centres unmarked) [Example 330]: the inhibition at 30 µM in test [1] (72 h) is 18%. Turning to `CC(C)(C)C[C@@H]1N[C@@H](C(=O)N[C@H]2CC[C@H](O)CC2)[C@H](c2cccc(Cl)c2F)[C@]12C(=O)Nc1cc(Cl)ccc12` [MI-773], the “inhibition of cell growth in cancer cell lines” value in test [2] was “potently inhibits cell growth”. Turning to “4-{[(1R)-1-(4-chlorophenyl)-7-fluoro-5-[1-hydroxy-1-(1-methyl-1H-imidazol-4-yl)propyl]-3-oxo-1-[(3S)-oxolan-3-yloxy]-2,3-dihydro-1H-isoindol-2-yl]methyl}benzonitrile [Example 97]”, the IC50 in test [3] (read-out: SJSA-1 IC50 (μM) (Protocol A), Protocol A) amounted to 0.37 µM.

Take `COc1cc(C(N)=O)ccc1NC(=O)[C@@H]1N[C@@H](CC(C)(C)C)[C@@]2(C(=O)Nc3cc(Cl)ccc32)[C@H]1c1cccc(Cl)c1F` [RO-8994]: the “inhibition of tumour growth” value in test [4] was “inhibit tumour growth”. Regarding `CN1CCC(C(C)(O)c2cc(F)c3c(c2)C(=O)N(Cc2ccc(Cl)cn2)[C@@]3(OCC2(C(N)=O)CC2)c2ccc(Cl)cc2)CC1` (some centres unmarked) [Example 306], the IC50 in test [5] was determined as 13 µM. As to `CO[C@]1(c2ccc(Cl)cc2)c2c(F)cc(C(C)(O)C3CCN(c4ncccn4)CC3)cc2C(=O)N1Cc1ccc(Cl)cn1` (some centres unmarked) [Example 286], the IC50 in test [5] was 12 µM. Turning to `c1ccc2c(CCNc3ccc(Nc4ccncc4)cc3)c[nH]c2c1` [JNJ 26854165], the “activity against multiple myeloma (MM) cells” value in test [6] is “potent activity”. As to `CO[C@]1(c2ccc(Cl)cc2)c2ccc(C(C)(O)CN3C[C@@H]4C[C@H]3CN4C)cc2C(=O)N1Cc1ccc(Cl)cn1` (some centres unmarked) [Example 264], the IC50 in test [1] was 8 µM. For `O=C(O)C(F)(F)F.O=C1CCC(N2Cc3c(C#CCCCNC(=O)c4ccc(NC(=O)[C@@H]5NC6(CCCCC6)[C@@]6(C(=O)Nc7cc(Cl)ccc76)[C@H]5c5cccc(Cl)c5F)cc4)cccc3C2=O)C(=O)N1` (some centres unmarked) [LE-004], the “growth inhibition in human leukaemia models in mice” value in test [7] is “efficiently inhibited growth”.

Regarding `CO[C@]1(c2ccc(Cl)cc2)c2c(F)cc(C(C)(O)c3ncc[nH]3)cc2C(=O)N1Cc1ccc(Cl)cn1` (some centres unmarked) [Example 163], the IC50 was found to be 3.1 µM in test [8] (Homo sapiens, SJSA-1, read-out: SJSA1 IC50 (μM) (Protocol B), Protocol B) and 13 µM in test [5].

Take `CCC(O)(c1cc(F)c2c(c1)C(=O)N(Cc1ccc(C#N)cn1)[C@@]2(O[C@H]1C[C@@H](O)C1)c1ccc(Cl)cc1)[C@H]1CC[C@H](O)CC1` (single isomer, unassigned) [Example 518]: the inhibition at 50 µM in test [1] (72 h, read-out: SN40R2 (Protocol A) % at concentration, Protocol A, at 50 μM) was 46%. `CO[C@]1(c2ccc(Cl)cc2)c2ccc(C(C)(O)CN3CCOCC3=O)cc2C(=O)N1Cc1ccc(Cl)cn1` (single isomer, unassigned) [Example 327]: the inhibition at 30 µM in test [1] (72 h) turned out to be 9%. Regarding `CCC(O)(c1cc(F)c2c(c1)C(=O)N(Cc1ccc(C#N)cn1)[C@@]2(O[C@H]1CCOC1)c1ccc(Cl)cc1)c1ccn(C)n1` (single isomer, unassigned) [Example 336], the IC50 in test [1] came out at 42 µM; in test [3] (Homo sapiens, SJSA-1, read-out: SJSA-1 IC50 (μM) (Protocol A), Protocol A), 0.1 µM. Turning to `CO[C@]1(c2ccc(Cl)cc2)c2c(F)cc(C(C)(O)c3nccs3)cc2C(=O)N1Cc1ccc(Cl)cn1` (some centres unmarked) [Example 165], the half-inhibitory concentration (IC50) was determined as 1.4 µM in test [8] (read-out: SJSA1 IC50 (μM) (Protocol B), Protocol B) and 13 µM in test [5].
